In data set [1] the target is hERG potassium ion channel (Homo sapiens, UniProt Q12809). Put plainly: Inhibitory effect on hERG potassium ion channel (whole-cell patch clamp, HEK-hERG cells). Format: cell-based. The conditions noted are these: for IC50: whole-cell patch clamp, room temperature, mean ± standard error, read-out: Inhibitory efficacy (IC50). As for the experimental part:
1) Model Cell Line and Culture
A HEK-hERG cell line (lonGate Biosciences, Frankfurt, Germany Co.), which expresses hERG stably, was cultured in a DMEM (Dulbecco's Modified Eagle's Medium, Sigma Co., St. Louis, Mo., USA) supplemented with 10% fetal bovine serum (FBS, Cambrex, Walkersville, Md., USA) and 0.5 mg/mL zeocin (Invitrogen, Carlsbad, Calif., USA). The cell line was subcultured 5 days after culture when 80% confluency was reached.
2) Preparation of Test Solution and Test Drug
A solution within an electrode used to measure the potassium ion current is composed of 115 mM K-aspartate, 20 mM KCl, 10 mM EGTA, 10 mM HEPES, 2.5 mM tris-phosphocreatine, 0.1 mM Na2GTP and 5 mM MgCl2 (pH 7.2, 290 mOsm/Kg H2O). A solution for an extracellular perfusate is composed of 135 mM NaCl, 5 mM KCl, 1 mM MgCl2, 2 mM CaCl2, 10 mM glucose, and 10 mM HEPES (pH 7.2, 300 mOsm/Kg H2O).
Test drug solutions were prepared by respectively diluting the inventive compounds with extracellular perfusate to a desired concentration. The prepared test drug solution was placed in a 7-array polyethylene tube connected into a capillary column for gas chromatography and was dropped from the tip of the column at a height of 100 μm or less to the HEK-hERG cell line.
3) Measurement of Ion Current
Potassium ion current was measured using EPC10 (Instrutech Co., NY, USA) patch clamp amplifier in accordance with the conventional whole-cell patch clamp method. Electrode used in the measurement was a borosilicate glass capillary (external diameter: 1.65 mm, inside diameter: 1.2 mm, Corning 7052, Gamer Glass Co., Claremont, Calif., USA) prepared by using P-97 Flaming-Brown micropipette puller (Sutter Instrument Co.). The electrode was coated with Sylgard 184 (Dow Corning Co., Midland, Mich., USA) and trimmed with microforge (Narishige Co., Tokyo, Japan). […] A culture dish containing HEK-hERG cells was placed in an inverted microscope (Nikon Co.) and extracellular perfusate containing the inventive compound was perfused at a rate of 1-2 mL/min. The membrane capacitance and series resistance of cell membrane were calibrated by 80% or more and potassium ion current was measured at a sampling rate of 2 kHz and a low-pass filter of 2 kHz (−3 dB; 8-pole Bassel filter). The test is conducted at room temperature (21-24° C.).
4) Data analysis and Statistics
The results were analyzed using Pulse/Pulsefit (v9.0, HEKA Elcktronik, Lambrecht, Germany) and Igor macro. The results were given as meant standard error.

Data set [2] in a line: Pharmacokinetics test in mice (plasma). Format: in vivo, ICR mice. The following applies: for AUC / Cmax / Tmax: ICR, mouse, plasma; for AUC / Cmax / Tmax / BA: mice; for AUC: n = 3; for AUC (in words) / bioavailability (in words): mice and rats, Tables 8 and 9; for BA: 2.5 mg/kg po vs 1.25 mg/kg iv. As for the experimental part:
1) Test Animal and Administration of Test Compound
Three 7 week-old ICR mice (weight: about 30 g) and three 8 week-old SD rats (weight: about 250 g) were used per test group. A solution prepared by dissolving the compounds of Examples 9 and 17 in excipient (DMSO/Tween 20/saline: 0.1/0.6/2.3, v/v/v) were administered to each experimental animal. The test compound was orally administered in an amount of 10 mL per kg of body weight or intravenously administered in an amount of 5 mL per kg of body weight through the fine vein.
2) Blood Concentration Test
At 30 min, 1 hr, 2 hr, 4 hr, 10 hr and 24 hr after oral administration of the test compounds, the blood was collected from periorbital veins into the tube containing heparin (1000 IU/mL, 3 μl) for the mice, and from jugular vein for rats. The blood sample was centrifuged at 12,000 rpm for 2 min to obtain plasma. The obtained plasma was kept in freezer at −80° C. until the analysis.
The sample was analyzed using LC/MSMS system under the following condition:
The sample was pretreated as follows:
50 μL of plasma was placed in 2.0 mL of tube having a cap (Eppendorf Co.) and acidified by adding 20 μL of 0.1% formic acid thereto. An internal standard solution and 1 mL of ethyl acetate as an extract solvent were added to the resultant solution. The resultant solution was mixed using thermomixer (Eppendorf Co.) at 1400 rpm for 5 min, and then subjected to centrifuge (Eppendorf Co.). The supernatant was collected and concentrated at 35° C. using cyclone. The residue was re-dissolved in 50 μL of moblie phase and 5 μL of the resulting solution was injected into LC/MS and analyzed.
In Tables 8 and 9, “iv” refers to a intravenous injection; “po” refers to a per oral; “AUC plasma” refers to an area under the plasma level-time curve; “Cmax” refers to a maximum plasma concentration; “Tmax” refers to a time to reach Cmax, “BA” refers to a bioavailability (%) according to Equation 2 below; “AUC Brain” refers to a area under the brain tissue level-time curve; and “AUCBrain/AUCPlasma” refers to a passage rate of the test compound to the brain.
Bioavailability (%)=[(AUCpo/AUCiv)×(Doseiv/Dosepo)×100] Equation 2
wherein, AUCpo means an area under the blood concentration time curve (AUC) after the per oral administration, AUCiv means an AUC after the intravenous injection, Doseiv means an amount of the intravenous injection, and Dosepo means an amount of the per oral administration.

Chain of hERG potassium ion channel (Q12809 whole entry): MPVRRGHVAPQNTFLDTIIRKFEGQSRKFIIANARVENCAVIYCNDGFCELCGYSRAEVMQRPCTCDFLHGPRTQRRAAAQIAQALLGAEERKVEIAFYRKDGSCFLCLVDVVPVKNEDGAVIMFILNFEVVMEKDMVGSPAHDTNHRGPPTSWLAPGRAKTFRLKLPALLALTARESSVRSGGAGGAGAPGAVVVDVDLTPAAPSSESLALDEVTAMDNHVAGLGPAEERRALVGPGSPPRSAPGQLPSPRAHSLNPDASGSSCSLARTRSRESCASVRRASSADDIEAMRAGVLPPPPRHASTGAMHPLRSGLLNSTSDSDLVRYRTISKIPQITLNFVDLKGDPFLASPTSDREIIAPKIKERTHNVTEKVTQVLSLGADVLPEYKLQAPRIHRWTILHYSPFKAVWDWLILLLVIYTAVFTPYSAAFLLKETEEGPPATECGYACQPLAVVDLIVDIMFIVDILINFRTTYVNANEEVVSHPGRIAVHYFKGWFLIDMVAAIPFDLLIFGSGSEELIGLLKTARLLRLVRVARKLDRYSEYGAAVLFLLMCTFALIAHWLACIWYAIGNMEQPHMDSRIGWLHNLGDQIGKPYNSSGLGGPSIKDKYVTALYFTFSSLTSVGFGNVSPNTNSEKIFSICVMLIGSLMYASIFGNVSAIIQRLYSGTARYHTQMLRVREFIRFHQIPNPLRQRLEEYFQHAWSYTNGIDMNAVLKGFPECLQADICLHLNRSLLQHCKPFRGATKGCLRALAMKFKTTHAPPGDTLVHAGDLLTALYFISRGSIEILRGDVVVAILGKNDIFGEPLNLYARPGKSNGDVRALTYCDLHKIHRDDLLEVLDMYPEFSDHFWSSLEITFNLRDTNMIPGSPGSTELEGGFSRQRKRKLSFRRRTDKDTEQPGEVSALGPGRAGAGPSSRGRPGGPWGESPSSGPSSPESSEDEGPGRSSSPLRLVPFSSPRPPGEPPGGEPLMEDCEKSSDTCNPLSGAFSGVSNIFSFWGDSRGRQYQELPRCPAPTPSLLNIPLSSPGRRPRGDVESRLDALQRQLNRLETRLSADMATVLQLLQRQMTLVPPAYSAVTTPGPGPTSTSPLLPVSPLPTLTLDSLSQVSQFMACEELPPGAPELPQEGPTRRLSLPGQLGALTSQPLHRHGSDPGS

Take `COc1ccc2cc(C=Cc3ccc(N(C)C)cc3)oc2c1` [Compound 9, 6-methoxy-2-(4-dimethylaminostyryl)benzofuran]: in data set [1], the “inhibitory efficacy on hERG potassium ion channel (in words)” value was “insignificant inhibitory efficacy” and the IC50 was found to be 52.1 ± 3.68 µM. In data set [2] (1.25 mg/kg, iv), this molecule came in with an AUC of 503 ng·h/mL. Further, in data set [2] (2.5 mg/kg, po), the Cmax is 172 ng/mL, the Tmax is 49.8 min and the AUC was determined as 646 ng·h/mL. Besides, in data set [2], the “AUC (in words)” value was “high degree of AUC”, the “bioavailability (in words)” value is given as “superior bioavailability” and the BA was 64.2%.
As to `CNc1ccc(C=Cc2cc3cc(OC)ccc3o2)cc1` [Compound 17, 5-methoxy-2-(4-methylaminostyryl)benzofuran], in data set [1], the “inhibitory efficacy on hERG potassium ion channel (in words)” value is recorded as “insignificant inhibitory efficacy” and the half-maximal inhibitory concentration (IC50) was 47.9 ± 5.26 µM. Also, the AUC in data set [2] (1.25 mg/kg, iv) amounted to 237 ng·h/mL. For the same molecule, in data set [2] (2.5 mg/kg, po), the Cmax stood at 96.5 ng/mL, the Tmax amounted to 49.8 min and the AUC came out at 326 ng·h/mL. In addition, in data set [2], the “AUC (in words)” value is listed as “high degree of AUC”, the “bioavailability (in words)” value is “superior bioavailability” and the BA is 68.8%.

As a reminder, the IC50 is the point on the concentration scale where inhibition reaches its midpoint. By AUC is commonly meant the area under the concentration-time curve, a measure of exposure. Low values mean low exposure, high ones high exposure. A word on the Cmax: it is the highest concentration seen after dosing. What is called Tmax is the time from dosing to the highest level.

These data come from US20110124888A1, “STYRYLBENZOFURAN DERIVATIVES AS INHIBITORS FOR BETA-AMYLOID FIBRIL FORMATION AND PREPARATION METHOD THEREOF” (Korea Institute of Science and Technology, priority 2008, published 2011).
